# From US20170008888A1 (KYORIN PHARMACEUTICAL CO., LTD., priority 2014, published 2017)
# Where two headings read alike, the source gives them in different places.
# Legend:
# Assay type in all cases: binding
# AurA = biological target: T1, AurA (Homo sapiens, UniProt O14965); test: Probe-based (AX9989) kinase profiling in Jurkat lysate: AurA
# T1 construct: screened for activity against several kinases in Jurkat cells; endogenous in cells; host or cells: Jurkat cell lysate
# T1 sequence (O14965 1-403): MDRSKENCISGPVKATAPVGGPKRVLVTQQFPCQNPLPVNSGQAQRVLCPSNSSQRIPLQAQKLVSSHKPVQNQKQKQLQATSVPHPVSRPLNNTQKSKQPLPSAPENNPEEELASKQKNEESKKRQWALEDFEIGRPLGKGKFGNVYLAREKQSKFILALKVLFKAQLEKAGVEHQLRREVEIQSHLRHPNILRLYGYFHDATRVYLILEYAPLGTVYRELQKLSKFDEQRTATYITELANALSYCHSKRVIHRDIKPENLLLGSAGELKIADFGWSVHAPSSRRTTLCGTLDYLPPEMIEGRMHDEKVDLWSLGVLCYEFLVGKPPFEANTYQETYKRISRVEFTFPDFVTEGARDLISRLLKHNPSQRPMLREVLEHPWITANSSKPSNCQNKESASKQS
# Method in brief: (§1)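 Percent inhibition was derived from reduced LC/MS fragment intensities of probe-labeled peptides relative to compound-free controls. Before labeling with 5 μM AX9989, Mn2+-supplemented (20 mM) Jurkat lysate was exposed to compound for 15 min at room temperature.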
# ERK5 = biological target: T2, ERK5 (Homo sapiens, UniProt Q13164); test: Probe-based (AX9989 acyl phosphate ATP probe) kinase profiling in Jurkat lysate: ERK5; conditions: for IC50: Jurkat lysate
# T2 construct: screened for activity against several kinases in Jurkat cells; endogenous in cells; host or cells: Jurkat cell lysate
# T2 sequence (Q13164 whole entry): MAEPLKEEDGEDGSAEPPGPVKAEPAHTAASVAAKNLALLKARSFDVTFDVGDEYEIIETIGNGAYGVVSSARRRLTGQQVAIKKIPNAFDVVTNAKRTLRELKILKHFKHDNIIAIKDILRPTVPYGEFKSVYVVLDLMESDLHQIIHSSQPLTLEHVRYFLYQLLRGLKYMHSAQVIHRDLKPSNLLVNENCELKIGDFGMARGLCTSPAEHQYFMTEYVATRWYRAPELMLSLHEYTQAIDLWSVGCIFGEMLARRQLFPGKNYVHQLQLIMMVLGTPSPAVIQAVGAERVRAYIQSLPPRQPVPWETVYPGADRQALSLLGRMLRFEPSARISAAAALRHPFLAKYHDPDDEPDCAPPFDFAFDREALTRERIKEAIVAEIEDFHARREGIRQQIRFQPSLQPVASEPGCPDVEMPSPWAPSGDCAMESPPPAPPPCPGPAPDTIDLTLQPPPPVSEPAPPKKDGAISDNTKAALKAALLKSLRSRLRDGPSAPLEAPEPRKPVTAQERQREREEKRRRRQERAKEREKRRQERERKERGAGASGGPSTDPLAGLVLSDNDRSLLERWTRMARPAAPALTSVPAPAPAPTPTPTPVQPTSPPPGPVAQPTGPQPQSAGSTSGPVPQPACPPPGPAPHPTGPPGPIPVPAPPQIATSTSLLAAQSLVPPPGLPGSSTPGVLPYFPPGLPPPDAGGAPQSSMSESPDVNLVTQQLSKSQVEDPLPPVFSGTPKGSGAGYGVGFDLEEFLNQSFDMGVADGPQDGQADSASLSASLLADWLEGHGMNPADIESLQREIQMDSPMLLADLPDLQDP
# Method in brief: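 ERK5 IC50 values came from percent inhibition at the screening concentration, measured as loss of LC/MS signal of probe-labelled active-site peptides. Compound was added for 15 min at room temperature to Jurkat lysate (5 mg/ml, 20 mM MnCl2) before labelling with AX9989 ATP acyl phosphate probe at 5 μM.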
# JAK1 = biological target: T3, JAK1 (Homo sapiens, UniProt P23458); test: Probe-based (AX9989) kinase profiling in Jurkat lysate: JAK1
# T3 construct: screened for activity against several kinases in Jurkat cells; endogenous in cells; host or cells: Jurkat cell lysate
# T3 sequence (P23458 whole entry): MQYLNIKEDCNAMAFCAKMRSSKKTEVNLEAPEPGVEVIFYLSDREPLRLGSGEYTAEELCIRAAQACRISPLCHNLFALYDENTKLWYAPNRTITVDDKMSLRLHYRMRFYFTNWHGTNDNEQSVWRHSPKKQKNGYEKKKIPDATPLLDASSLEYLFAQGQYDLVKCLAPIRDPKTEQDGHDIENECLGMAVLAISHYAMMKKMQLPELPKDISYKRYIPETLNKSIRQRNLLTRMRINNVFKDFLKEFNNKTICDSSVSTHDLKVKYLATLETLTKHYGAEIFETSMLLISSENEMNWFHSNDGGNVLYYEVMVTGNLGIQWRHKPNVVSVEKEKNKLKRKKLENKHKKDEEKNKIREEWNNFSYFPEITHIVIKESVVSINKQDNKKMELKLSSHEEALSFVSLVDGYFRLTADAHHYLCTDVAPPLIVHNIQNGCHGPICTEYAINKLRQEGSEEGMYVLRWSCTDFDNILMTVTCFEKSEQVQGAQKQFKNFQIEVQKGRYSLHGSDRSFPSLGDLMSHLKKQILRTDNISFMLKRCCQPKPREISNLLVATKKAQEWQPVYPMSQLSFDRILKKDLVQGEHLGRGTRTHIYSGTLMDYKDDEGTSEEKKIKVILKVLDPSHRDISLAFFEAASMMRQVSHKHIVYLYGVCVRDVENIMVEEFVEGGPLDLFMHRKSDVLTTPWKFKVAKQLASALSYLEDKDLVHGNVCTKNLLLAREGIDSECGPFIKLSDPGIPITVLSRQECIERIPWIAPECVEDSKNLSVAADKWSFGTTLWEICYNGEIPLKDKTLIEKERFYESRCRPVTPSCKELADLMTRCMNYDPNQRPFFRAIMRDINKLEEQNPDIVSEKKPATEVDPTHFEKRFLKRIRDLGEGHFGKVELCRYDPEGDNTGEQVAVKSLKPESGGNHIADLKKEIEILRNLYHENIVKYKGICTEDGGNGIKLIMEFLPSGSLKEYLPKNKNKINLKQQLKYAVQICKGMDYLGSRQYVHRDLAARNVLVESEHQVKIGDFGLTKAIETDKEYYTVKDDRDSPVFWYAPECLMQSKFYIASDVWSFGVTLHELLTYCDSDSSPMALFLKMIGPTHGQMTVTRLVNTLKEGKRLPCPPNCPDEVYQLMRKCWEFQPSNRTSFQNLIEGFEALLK
# Method in brief: as §1
# AMPKa1 or AMPKa2 = test: Probe-based (AX9989) kinase profiling in Jurkat lysate: AMPKa1 or AMPKa2
# Method in brief: as §1
# TAO2 = biological target: T4, TAO2 (Homo sapiens, UniProt Q9UL54); test: Probe-based (AX9989) kinase profiling in Jurkat lysate: TAO2
# T4 construct: screened for activity against several kinases in Jurkat cells; endogenous in cells; host or cells: Jurkat cell lysate
# T4 sequence (Q9UL54 1-1235): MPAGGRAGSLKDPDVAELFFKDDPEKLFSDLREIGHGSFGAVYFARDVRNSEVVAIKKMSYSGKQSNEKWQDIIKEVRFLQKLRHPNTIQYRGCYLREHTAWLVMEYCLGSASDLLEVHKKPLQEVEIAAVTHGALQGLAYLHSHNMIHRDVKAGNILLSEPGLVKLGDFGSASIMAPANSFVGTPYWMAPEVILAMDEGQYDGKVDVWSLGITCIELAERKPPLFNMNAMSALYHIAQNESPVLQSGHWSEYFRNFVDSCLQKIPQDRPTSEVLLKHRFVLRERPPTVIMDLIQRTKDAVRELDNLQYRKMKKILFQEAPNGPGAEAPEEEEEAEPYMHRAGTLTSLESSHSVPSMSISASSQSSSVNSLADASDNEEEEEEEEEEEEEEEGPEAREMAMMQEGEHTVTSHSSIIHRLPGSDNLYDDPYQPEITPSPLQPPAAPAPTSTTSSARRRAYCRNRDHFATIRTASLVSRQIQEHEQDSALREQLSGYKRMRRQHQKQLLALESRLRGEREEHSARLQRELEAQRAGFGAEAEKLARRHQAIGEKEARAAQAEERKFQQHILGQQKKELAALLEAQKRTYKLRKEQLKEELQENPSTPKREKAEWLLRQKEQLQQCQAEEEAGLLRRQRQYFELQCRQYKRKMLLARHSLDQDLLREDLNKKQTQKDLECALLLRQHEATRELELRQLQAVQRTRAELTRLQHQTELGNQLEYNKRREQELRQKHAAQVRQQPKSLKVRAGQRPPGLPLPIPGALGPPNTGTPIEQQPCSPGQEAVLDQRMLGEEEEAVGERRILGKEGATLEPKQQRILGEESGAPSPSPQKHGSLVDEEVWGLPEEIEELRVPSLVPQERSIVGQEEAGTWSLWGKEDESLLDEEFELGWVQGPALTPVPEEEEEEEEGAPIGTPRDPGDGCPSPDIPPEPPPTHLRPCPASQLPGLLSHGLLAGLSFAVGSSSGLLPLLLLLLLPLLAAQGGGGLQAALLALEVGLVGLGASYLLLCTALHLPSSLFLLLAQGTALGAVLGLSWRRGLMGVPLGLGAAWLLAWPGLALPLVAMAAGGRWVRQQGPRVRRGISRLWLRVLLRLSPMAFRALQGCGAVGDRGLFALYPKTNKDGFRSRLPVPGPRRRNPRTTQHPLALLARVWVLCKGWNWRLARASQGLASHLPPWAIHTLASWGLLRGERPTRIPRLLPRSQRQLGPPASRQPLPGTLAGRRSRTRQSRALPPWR
# Method in brief: as §1
# ABL or ARG = test: Probe-based (AX9989) kinase profiling in Jurkat lysate: ABL or ARG
# Method in brief: as §1
# [1] = screening concentration 1 μM, read-out: AurA Inhibition % at indicated screening concentration
# [2] = calculated from percent inhibition and screening concentration, AX9989 probe
# [3] = screening concentration 1 μM, read-out: ERK5 Inhibition % at indicated screening concentration
# [4] = screening concentration 1 μM, read-out: JAK1 Inhibition % at indicated screening concentration
# [5] = screening concentration 1 μM, read-out: TAO2 Inhibition % at indicated screening concentration
# [6] = screening concentration 1.0 μM, read-out: Kinase inhibition % at indicated screening concentration: AurA
# [7] = calculated from percent inhibition of AX9989 labeling and the screening concentration
# [8] = screening concentration 1.0 μM, read-out: Kinase inhibition % at indicated screening concentration: ERK5
# [9] = screening concentration 1.0 μM, read-out: Kinase inhibition % at indicated screening concentration: JAK1
# [10] = screening concentration 1.0 μM, read-out: Kinase inhibition % at indicated screening concentration: TAO2
Structure (SMILES),inhibition at 1 µM (AurA; [1]),IC50 (ERK5; [2]),inhibition at 1 µM (ERK5; [3]),inhibition at 1 µM (JAK1; [4]),AMPKa1 or AMPKa2 Inhibition % at indicated screening concentration (AMPKa1 or AMPKa2; screening concentration 1 μM),inhibition at 1 µM (TAO2; [5]),ABL or ARG Inhibition % at indicated screening concentration (ABL or ARG; screening concentration 1 μM),IC50 (ERK5; [7]),further results
CCOc1cc(C(=O)NCCn2ccnc2)ccc1Nc1cc2c(cn1)N(C)C(=O)c1ccccc1N2C [Compound 84],–,–,–,–,–,–,–,50 to 100 nM,inhibition at 1 µM (AurA; [6]): ≤ 35%; inhibition at 1 µM (ERK5; [8]): > 90%; inhibition at 1 µM (JAK1; [9]): ≤ 35%; Kinase inhibition % at indicated screening concentration: AMPKa1 or AMPKa2 (AMPKa1 or AMPKa2; screening concentration 1.0 μM): E (E is ≦35%); inhibition at 1 µM (TAO2; [10]): ≤ 35%; Kinase inhibition % at indicated screening concentration: ABL or ARG (ABL or ARG; screening concentration 1.0 μM): E (E is ≦35%)
CCOc1cc(C(=O)N2CCN(C3CCN(C)CC3)CC2)ccc1Nc1cc2c(cn1)N(C)C(=O)c1ccccc1N2C [Compound T8],≤ 35%,≤ 50 nM,> 90%,≤ 35%,E (E is ≦35%),≤ 35%,E (E is ≦35%),–,–
CCOc1cc(C(=O)N2CCC(N3CCN(C)CC3)CC2)ccc1Nc1cc2c(cn1)N(C)C(C(F)(F)F)c1ccccc1N2C (stereo not shown) [Compound T47],–,> 500 nM,–,–,–,–,–,–,"inhibition at 10 µM (AurA; screening concentration 10 μM, read-out: AurA Inhibition % at indicated screening concentration): ≤ 35%; inhibition at 10 µM (ERK5; screening concentration 10 μM, read-out: ERK5 Inhibition % at indicated screening concentration): 50 to 75%; inhibition at 10 µM (JAK1; screening concentration 10 μM, read-out: JAK1 Inhibition % at indicated screening concentration): ≤ 35%; AMPKa1 or AMPKa2 Inhibition % at indicated screening concentration (AMPKa1 or AMPKa2; screening concentration 10 μM): E (E is ≦35%); inhibition at 10 µM (TAO2; screening concentration 10 μM, read-out: TAO2 Inhibition % at indicated screening concentration): ≤ 35%; ABL or ARG Inhibition % at indicated screening concentration (ABL or ARG; screening concentration 10 μM): E (E is ≦35%)"
CCOc1cc(C(=O)N2CCCC(O)C2)ccc1Nc1cc2c(cn1)N(C)C(=O)c1ccccc1N2C (stereo not shown) [Compound 93],–,–,–,–,–,–,–,50 to 100 nM,inhibition at 1 µM (AurA; [6]): ≤ 35%; inhibition at 1 µM (ERK5; [8]): > 90%; inhibition at 1 µM (JAK1; [9]): ≤ 35%; Kinase inhibition % at indicated screening concentration: AMPKa1 or AMPKa2 (AMPKa1 or AMPKa2; screening concentration 1.0 μM): E (E is ≦35%); inhibition at 1 µM (TAO2; [10]): ≤ 35%; Kinase inhibition % at indicated screening concentration: ABL or ARG (ABL or ARG; screening concentration 1.0 μM): E (E is ≦35%)

# The next lines start with results.
inhibition at 1 µM (AurA; [1]),IC50 (ERK5; [2]),inhibition at 1 µM (ERK5; [3]),inhibition at 1 µM (JAK1; [4]),AMPKa1 or AMPKa2 Inhibition % at indicated screening concentration (AMPKa1 or AMPKa2; screening concentration 1 μM),inhibition at 1 µM (TAO2; [5]),ABL or ARG Inhibition % at indicated screening concentration (ABL or ARG; screening concentration 1 μM),IC50 (ERK5; [7]),Structure (SMILES),further results
≤ 35%,≤ 50 nM,> 90%,≤ 35%,E (E is ≦35%),≤ 35%,E (E is ≦35%),–,CN1CCC(N2CCN(C(=O)c3ccc(Nc4cc5c(cn4)N(C)C(=O)c4ccccc4N5C)c(OC(F)F)c3)CC2)CC1 [Compound T76],–
≤ 35%,≤ 50 nM,> 90%,≤ 35%,E (E is ≦35%),≤ 35%,E (E is ≦35%),–,CCOc1cc(C(=O)N2CCC(N3CC[C@H](O)C3)CC2)ccc1Nc1cc2c(cn1)N(C)C(=O)c1ccccc1N2C [Compound T11],–
–,–,–,–,–,–,–,≤ 50 nM,CCOc1cc(C(=O)N2CCC(F)C2)ccc1Nc1cc2c(cn1)N(C)C(=O)c1occc1N2C (stereo not shown) [Compound 72],"inhibition at 0.1 µM (AurA; screening concentration 0.1 μM, read-out: Kinase inhibition % at indicated screening concentration: AurA): ≤ 35%; inhibition at 0.1 µM (ERK5; screening concentration 0.1 μM, read-out: Kinase inhibition % at indicated screening concentration: ERK5): 75 to 90%; inhibition at 0.1 µM (JAK1; screening concentration 0.1 μM, read-out: Kinase inhibition % at indicated screening concentration: JAK1): ≤ 35%; Kinase inhibition % at indicated screening concentration: AMPKa1 or AMPKa2 (AMPKa1 or AMPKa2; screening concentration 0.1 μM): E (E is ≦35%); inhibition at 0.1 µM (TAO2; screening concentration 0.1 μM, read-out: Kinase inhibition % at indicated screening concentration: TAO2): ≤ 35%; Kinase inhibition % at indicated screening concentration: ABL or ARG (ABL or ARG; screening concentration 0.1 μM): E (E is ≦35%)"
